Experiment [1] concerns the target recombinant human HDAC6 (Homo sapiens (Human), UniProt Q9UBN7). In words: Enzymatic screening, HDAC6 inhibition (fluorogenic FdL_G substrate). Format: biochemical. The method in brief: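 Enzyme was preincubated with compound (8 doses, triplicate, 1% DMSO) in 25 mM Tris-HCl pH 8, 130 mM NaCl, 0.05% Tween-20, 10% glycerol, with BSA. A FLUOR DE LYS-Green substrate was then added, and fluorescence was read after developer plus 2 μM TSA.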

Experiment [2] has as its target recombinant human HDAC1 (Homo sapiens (Human), UniProt Q13547). In words: Enzymatic screening, HDAC1 inhibition (fluorogenic FdL_G substrate). The experiment is classed as biochemical. In a few lines:
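Recombinant human HDAC1 inhibition was measured fluorometrically using the FLUOR DE LYS-Green (FdL_G) substrate. Compounds at 8 doses (1% DMSO final) in Tris-HCl pH 8 buffer with NaCl, Tween-20 and glycerol were preincubated in triplicate with enzyme and 1 mg/mL BSA, then given substrate. Developer I plus 2 μM TSA was added, and fluorescence read after 25 minutes in the dark.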

Molecules are shown by their SMILES.

As usually defined, the IC50 is the midpoint of a concentration-inhibition curve.

Sequence of recombinant human HDAC6 (Q9UBN7 whole entry): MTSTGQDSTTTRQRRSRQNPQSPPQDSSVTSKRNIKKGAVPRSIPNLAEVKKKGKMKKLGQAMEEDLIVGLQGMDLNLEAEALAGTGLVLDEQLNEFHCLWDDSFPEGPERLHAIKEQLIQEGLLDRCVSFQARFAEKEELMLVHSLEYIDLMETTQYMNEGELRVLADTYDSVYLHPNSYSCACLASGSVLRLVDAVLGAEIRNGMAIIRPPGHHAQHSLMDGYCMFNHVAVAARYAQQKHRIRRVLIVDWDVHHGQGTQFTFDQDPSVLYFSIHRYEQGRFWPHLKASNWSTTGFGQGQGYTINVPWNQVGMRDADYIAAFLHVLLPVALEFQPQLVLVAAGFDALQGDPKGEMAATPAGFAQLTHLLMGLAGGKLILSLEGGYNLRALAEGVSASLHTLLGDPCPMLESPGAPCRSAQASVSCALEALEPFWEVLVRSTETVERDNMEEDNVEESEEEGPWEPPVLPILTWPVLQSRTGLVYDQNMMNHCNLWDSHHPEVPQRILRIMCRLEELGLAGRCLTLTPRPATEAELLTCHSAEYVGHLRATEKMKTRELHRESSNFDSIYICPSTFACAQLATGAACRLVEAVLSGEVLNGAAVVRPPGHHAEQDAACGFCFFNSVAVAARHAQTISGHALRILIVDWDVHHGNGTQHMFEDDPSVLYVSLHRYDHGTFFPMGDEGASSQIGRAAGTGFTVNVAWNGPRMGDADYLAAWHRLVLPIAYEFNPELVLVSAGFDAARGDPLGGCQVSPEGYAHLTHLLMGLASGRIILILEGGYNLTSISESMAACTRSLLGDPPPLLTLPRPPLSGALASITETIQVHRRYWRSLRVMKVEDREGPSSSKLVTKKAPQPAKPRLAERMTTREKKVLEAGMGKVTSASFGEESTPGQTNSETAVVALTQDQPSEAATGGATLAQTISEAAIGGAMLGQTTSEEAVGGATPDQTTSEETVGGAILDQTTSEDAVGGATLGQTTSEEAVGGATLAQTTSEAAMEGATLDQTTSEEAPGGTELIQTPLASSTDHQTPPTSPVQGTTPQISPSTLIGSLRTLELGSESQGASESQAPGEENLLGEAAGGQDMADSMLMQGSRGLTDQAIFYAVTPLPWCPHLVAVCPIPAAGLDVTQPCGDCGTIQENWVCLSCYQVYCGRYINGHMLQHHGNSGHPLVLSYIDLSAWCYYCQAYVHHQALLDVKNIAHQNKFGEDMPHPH
Sequence of recombinant human HDAC1 (Q13547 whole entry): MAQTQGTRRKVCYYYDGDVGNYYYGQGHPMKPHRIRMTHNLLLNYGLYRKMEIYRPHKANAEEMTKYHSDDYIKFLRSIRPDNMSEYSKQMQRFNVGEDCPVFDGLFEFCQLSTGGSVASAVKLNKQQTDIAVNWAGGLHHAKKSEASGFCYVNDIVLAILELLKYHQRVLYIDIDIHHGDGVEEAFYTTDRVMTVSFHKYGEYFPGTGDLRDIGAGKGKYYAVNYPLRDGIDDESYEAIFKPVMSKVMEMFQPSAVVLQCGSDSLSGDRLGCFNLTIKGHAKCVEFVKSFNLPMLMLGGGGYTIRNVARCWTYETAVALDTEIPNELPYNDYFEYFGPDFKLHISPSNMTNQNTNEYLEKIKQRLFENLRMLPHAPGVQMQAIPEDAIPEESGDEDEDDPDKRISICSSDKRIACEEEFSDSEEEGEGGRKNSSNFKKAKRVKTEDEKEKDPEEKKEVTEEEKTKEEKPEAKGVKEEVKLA

With `CC(c1ccc(-c2nnc(C(F)F)o2)c(F)c1)n1cc(-c2cccc(NC(=O)N3CCOCC3)c2)nn1` (stereo not drawn) [compound 189, N-(3-(1-(1-(4-(5-(difluoromethyl)-1,3,4-oxadiazol-2-yl)-3-fluorophenyl)ethyl)-1H-1,2,3-triazol-4-yl)phenyl)morpholine-4-carboxamide], the IC50 is 99 nM in experiment [1] and > 200000 nM in experiment [2].

Regarding `NCc1ccc(-c2nc(Cc3ccc(-c4nnc(C(F)F)o4)cc3)no2)cc1` [compound 191, (4-(3-(4-(5-(difluoromethyl)-1,3,4-oxadiazol-2-yl)benzyl)-1,2,4-oxadiazol-5-yl)phenyl)methanamine], the IC50 in experiment [1] was 102 nM; in experiment [2], > 200000 nM.

For `Nc1cccc(-c2cn(Cc3ccc(-c4nnc(C(F)F)o4)cc3)nn2)c1` [compound 192, 3-(1-(4-(5-(difluoromethyl)-1,3,4-oxadiazol-2-yl)benzyl)-1H-1,2,3-triazol-4-yl)aniline], the IC50 was 102 nM in experiment [1] and > 200000 nM in experiment [2].

For `O=C1Nc2cc(-c3nnn(Cc4ccc(-c5nnc(C(F)F)o5)cc4)n3)ccc2NC12CCCC2` [compound 195, 6′-(2-(4-(5-(difluoromethyl)-1,3,4-oxadiazol-2-yl)benzyl)-2H-tetrazol-5-yl)-1′,4′-dihydro-3′H-spiro[cyclopentane-1,2′-quinoxalin]-3′-one], the IC50 was 104 nM in experiment [1] and > 200000 nM in experiment [2].

With `O=C(Nc1cc(-c2nnn(Cc3c(F)cc(-c4nnc(C(F)F)o4)cc3F)n2)ccc1OC(=O)N1CCOCC1)N1CCOCC1` [compound 196, 4-(2-(4-(5-(difluoromethyl)-1,3,4-oxadiazol-2-yl)-2,6-difluorobenzyl)-2H-tetrazol-5-yl)-2-(morpholine-4-carboxamido)phenyl morpholine-4-carboxylate], the IC50 in experiment [1] was 107 nM; in experiment [2] it was > 200000 nM.

As to `Nc1ccc(-c2cn(Cc3ccc(-c4nnc(C(F)F)o4)nn3)nn2)cn1` [compound 198, 5-(1-((6-(5-(difluoromethyl)-1,3,4-oxadiazol-2-yl)pyridazin-3-yl)methyl)-1H-1,2,3-triazol-4-yl)pyridin-2-amine], the IC50 in experiment [1] is 109 nM; in experiment [2], > 200000 nM.

As to `O=C(Nc1cncc(-c2nnn(Cc3ccc(-c4nnc(C(F)F)o4)cc3)n2)c1)N1CCOCC1` [compound 199, N-(5-(2-(4-(5-(difluoromethyl)-1,3,4-oxadiazol-2-yl)benzyl)-2H-tetrazol-5-yl)pyridin-3-yl)morpholine-4-carboxamide], the IC50 in experiment [1] was 109 nM; in experiment [2], > 200000 nM.

As for `Nc1ncc(-c2cccc(-c3nnn(Cc4ccc(-c5nnc(C(F)F)o5)cc4)n3)c2)s1` [compound 200, 5-(3-(2-(4-(5-(difluoromethyl)-1,3,4-oxadiazol-2-yl)benzyl)-2H-tetrazol-5-yl)phenyl)thiazol-2-amine], the IC50 is 113 nM in experiment [1] and > 200000 nM in experiment [2].

Take `CN(Cc1ccncc1)Cc1ccc(-c2nnn(Cc3c(F)cc(-c4nnc(C(F)F)o4)cc3F)n2)cc1` [compound 201, N-(4-(2-(4-(5-(difluoromethyl)-1,3,4-oxadiazol-2-yl)-2,6-difluorobenzyl)-2H-tetrazol-5-yl)benzyl)-N-methyl-1-(pyridin-4-yl)methanamine]: the IC50 in experiment [1] was 115 nM; in experiment [2] it was > 200000 nM.

`O=C1CCc2ccc(-c3nnn(Cc4ccc(-c5nnc(C(F)F)o5)cc4)n3)cc21` [compound 203, 6-(2-(4-(5-(difluoromethyl)-1,3,4-oxadiazol-2-yl)benzyl)-2H-tetrazol-5-yl)-2,3-dihydro-1H-inden-1-one]: the IC50 in experiment [1] is 118 nM; in experiment [2], > 200000 nM.

For the molecule `CN(Cc1ccc(-c2nc(Cc3c(F)cc(-c4nnc(C(F)F)o4)cc3F)no2)cc1)C(=O)C(F)F` [compound 206, N-(4-(3-(4-(5-(difluoromethyl)-1,3,4-oxadiazol-2-yl)-2,6-difluorobenzyl)-1,2,4-oxadiazol-5-yl)benzyl)-2,2-difluoro-N-methylacetamide], the IC50 in experiment [1] was 127 nM; in experiment [2], > 200000 nM.

For the molecule `O=C1CCc2c1cccc2-c1nnn(Cc2ccc(-c3nnc(C(F)F)o3)cc2)n1` [compound 208, 4-(2-(4-(5-(difluoromethyl)-1,3,4-oxadiazol-2-yl)benzyl)-2H-tetrazol-5-yl)-2,3-dihydro-1H-inden-1-one], the IC50 in experiment [1] is 132 nM; in experiment [2] it was > 200000 nM.

Take `O=C1Nc2cc(-c3nnn(Cc4ccc(-c5nnc(C(F)F)o5)cc4)n3)ccc2NC12CCCCC2` [compound 209, 6′-(2-(4-(5-(difluoromethyl)-1,3,4-oxadiazol-2-yl)benzyl)-2H-tetrazol-5-yl)-1′,4′-dihydro-3′H-spiro[cyclohexane-1,2′-quinoxalin]-3′-one]: the IC50 was 133 nM in experiment [1] and > 200000 nM in experiment [2].

For `Cn1c(=O)[nH]c2cc(-c3nnn(Cc4ccc(-c5nnc(C(F)F)o5)cc4)n3)ccc21` [compound 210, 5-(2-(4-(5-(difluoromethyl)-1,3,4-oxadiazol-2-yl)benzyl)-2H-tetrazol-5-yl)-1-methyl-1,3-dihydro-2H-benzo[d]imidazol-2-one], the concentration for half-maximal inhibition (IC50) is 138 nM in experiment [1] and > 200000 nM in experiment [2].

As for `CN1CCN(c2ccc(-c3nnn(Cc4ccc(-c5nnc(C(F)F)o5)cc4)n3)cn2)CC1` [compound 212, 2-(difluoromethyl)-5-(4-((5-(6-(4-methylpiperazin-1-yl)pyridin-3-yl)-2H-tetrazol-2-yl)methyl)phenyl)-1,3,4-oxadiazole], the IC50 was 147 nM in experiment [1] and > 200000 nM in experiment [2].

Regarding `CN1CCN(c2ccc(-c3nnn(Cc4ccc(-c5nnc(C(F)F)o5)cc4)n3)cc2)CC1` [compound 213, 2-(difluoromethyl)-5-(4-((5-(4-(4-methylpiperazin-1-yl)phenyl)-2H-tetrazol-2-yl)methyl)phenyl)-1,3,4-oxadiazole], the IC50 in experiment [1] is 150 nM; in experiment [2] it was > 200000 nM.

Regarding `Fc1cc(-c2nnc(C(F)F)o2)cc(F)c1Cn1cc(-c2ccc(CN3CC(C(F)(F)F)C3)cc2)nn1` [compound 214, 2-(3,5-difluoro-4-((4-(4-((3-(trifluoromethyl)azetidin-1-yl)methyl)phenyl)-1H-1,2,3-triazol-1-yl)methyl)phenyl)-5-(difluoromethyl)-1,3,4-oxadiazole], the IC50 is 151 nM in experiment [1] and > 200000 nM in experiment [2].

Regarding `CN(Cc1ccncc1)Cc1ccc(-c2nnn(Cc3ccc(-c4nnc(C(F)F)o4)cc3)n2)cc1` [compound 215, N-(4-(2-(4-(5-(difluoromethyl)-1,3,4-oxadiazol-2-yl)benzyl)-2H-tetrazol-5-yl)benzyl)-N-methyl-1-(pyridin-4-yl)methanamine], the results for the IC50 in experiment [1] and in experiment [2] were 151 nM and > 200000 nM, respectively.

As for `CC(C)(C)OC(=O)N1CCC2(CC1)C(=O)Nc1ccc(-c3cn(Cc4ccc(-c5nnc(C(F)F)o5)cc4)nn3)cc12` [compound 216, tert-butyl 5-(1-(4-(5-(difluoromethyl)-1,3,4-oxadiazol-2-yl)benzyl)-1H-1,2,3-triazol-4-yl)-2-oxospiro[indoline-3,4′-piperidine]-1′-carboxylate], the values for the IC50 in experiment [1] and in experiment [2] were 151 nM and > 200000 nM, respectively.

In the case of `CC(C)(c1ccncc1)c1nnn(Cc2ccc(-c3nnc(C(F)F)o3)cc2)n1` [compound 219, 2-(difluoromethyl)-5-(4-((5-(2-(pyridin-4-yl)propan-2-yl)-2H-tetrazol-2-yl)methyl)phenyl)-1,3,4-oxadiazole], the IC50 in experiment [1] is 156 nM; in experiment [2] it was > 200000 nM.

In the case of `FC(F)c1nnc(-c2ccc(Cn3nnc(-c4ccco4)n3)cc2)o1` [compound 220, 2-(difluoromethyl)-5-(4-((5-(furan-2-yl)-2H-tetrazol-2-yl)methyl)phenyl)-1,3,4-oxadiazole], the IC50 in experiment [1] is 157 nM; in experiment [2], > 200000 nM.

In the case of `Nc1ccc(-c2cn(C(Cc3ccccc3)c3ccc(-c4nnc(C(F)F)o4)cc3)nn2)cn1` (stereo not drawn) [compound 221, 5-(1-(1-(4-(5-(difluoromethyl)-1,3,4-oxadiazol-2-yl)phenyl)-2-phenylethyl)-1H-1,2,3-triazol-4-yl)pyridin-2-amine], the IC50 was 157 nM in experiment [1] and > 200000 nM in experiment [2].

Regarding `FC(F)c1nnc(-c2ccc(Cn3cc(-c4ccc5cn[nH]c5c4)nn3)cc2)o1` [compound 222, 2-(4-((4-(1H-indazol-6-yl)-1H-1,2,3-triazol-1-yl)methyl)phenyl)-5-(difluoromethyl)-1,3,4-oxadiazole], the IC50 in experiment [1] is 160 nM; in experiment [2], > 200000 nM.

For `NC(=O)c1cccc(-c2cn(Cc3ccc(-c4nnc(C(F)F)o4)cc3)cn2)c1` [compound 223, 3-(1-(4-(5-(difluoromethyl)-1,3,4-oxadiazol-2-yl)benzyl)-1H-imidazol-4-yl)benzamide], the values for the IC50 in experiment [1] and in experiment [2] were 161 nM and > 200000 nM, respectively.

As for `Fc1cc(-c2nnn(Cc3ccc(-c4nnc(C(F)F)o4)cc3)n2)ccc1N1CCNCC1` [compound 224, 2-(difluoromethyl)-5-(4-((5-(3-fluoro-4-(piperazin-1-yl)phenyl)-2H-tetrazol-2-yl)methyl)phenyl)-1,3,4-oxadiazole], the values for the IC50 in experiment [1] and in experiment [2] were 162 nM and > 200000 nM, respectively.

Take `O=c1[nH]c2cc(-c3nnn(Cc4ccc(-c5nnc(C(F)F)o5)cc4)n3)ccc2o1` [compound 225, 5-(2-(4-(5-(difluoromethyl)-1,3,4-oxadiazol-2-yl)benzyl)-2H-tetrazol-5-yl)benzo[d]oxazol-2 (3H)-one]: the 50% inhibitory concentration (IC50) in experiment [1] is 169 nM; in experiment [2], > 200000 nM.

Turning to `O=C(Nc1cccc(-c2cnn(Cc3ccc(-c4nnc(C(F)F)o4)cc3)c2)c1)N1CCOCC1` [compound 227, N-(3-(1-(4-(5-(difluoromethyl)-1,3,4-oxadiazol-2-yl)benzyl)-1H-pyrazol-4-yl)phenyl)morpholine-4-carboxamide], the IC50 in experiment [1] is 172 nM; in experiment [2] it was > 200000 nM.

These data come from US20230286970A1, “NOVEL OXADIAZOLE-BASED SELECTIVE HDAC6 INHIBITORS” (ITALFARMACO S.P.A., priority 2020, published 2023).
